koff data for five compounds are collected here from BindingDB's records for doi:10.7270/Q2M61NDW (n/a, 1996).

The target in the assay is T1, Papain (Carica papaya, UniProt P00784).
T1 sequence (P00784 whole entry): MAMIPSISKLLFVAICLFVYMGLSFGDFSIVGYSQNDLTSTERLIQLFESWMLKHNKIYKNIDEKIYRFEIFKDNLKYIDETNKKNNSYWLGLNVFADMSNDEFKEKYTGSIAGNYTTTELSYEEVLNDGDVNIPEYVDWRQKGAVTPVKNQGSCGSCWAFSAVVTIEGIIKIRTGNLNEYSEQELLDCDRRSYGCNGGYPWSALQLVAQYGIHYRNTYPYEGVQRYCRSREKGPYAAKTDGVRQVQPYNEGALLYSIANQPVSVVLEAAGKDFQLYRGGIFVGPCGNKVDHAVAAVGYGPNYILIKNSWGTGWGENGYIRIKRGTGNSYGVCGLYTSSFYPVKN
Kind of assay: Pseudo-first order rate constant for inhibition of thiol-dependent papain enzyme.

Structures are written as SMILES.

`CN(N=O)c1ccccc1O` showed a koff of 0.000183 s⁻¹. Next, `CN(N=O)c1ccccc1`: 0.00095 s⁻¹.

Turning to `CN(N=O)c1ccc(Cl)cc1`, the koff stood at 0.000283 s⁻¹.

`CN(N=O)c1cccc(O)c1` registered a koff of 0.0006 s⁻¹. Next, `CN(N=O)c1ccccc1[N+](=O)[O-]`: 0.000433 s⁻¹.

For orientation: koff means the first-order rate constant of dissociation. A high value points to fast dissociation.
